Consider two substances from patent US4614731A, “Peptide having immunopotentiating activity similar to thymosin alpha1” (Hoffmann-La Roche Inc., priority 1985, dated 1986).

In test [1] the test system is Candida albicans. As to the kind of experiment: Growth of Candida albicans in C3 H/HeJ mice treated daily i.p. with thymic derivatives. Format: in vivo. Conditions: for Protection in comparison with control mice: daily i.p. graded doses beginning two days before i.v. challenge with 4×10^4 cells of C. albicans; for C. albicans cell count: average number of organisms in left kidneys of nine mice, days 7, 14 and 21 after infection; for Most active (optimum) daily dose: i.p., resistance to infection with C. albicans; for Potency relative to fraction 5 in ability to induce resistance to infection with C. albicans: ratio of optimum doses. The source says:
The biological activity of thymosin alpha1 can be determined by utilizing in vivo assays known in the art. Thus, for example, inbred strains of mice are known to vary in their susceptability to infection with C. albicans. Thus, mice of such strains as C3 H/HeJ or CBA/CaJ are highly susceptible to infection, whereas mice of such strains as C57 Bl/10SNJ or C57 Bl/KsJ were highly resistant to challenge. Since resistance to infection with C. albicans is associated with cell-mediated processes, and therefore with T-lymphocytes, thymic hormones should have an effect on the host response.
Thymosin fraction5, alpha1, or alpha11 was injected daily i.p. in graded doses into three different groups of mice, beginning two days before intravenous challenge with 4×10^4 cells of C. albicans.
Mice were treated daily with the indicated doses of thymosin fraction 5,
thymosin α1 or thymosin α11 and challenged with 4
× 10^4 cells of C. albicans two days after the start of
*Three mice from each set were sacrificed on days 7, 14 and 21 after
infection and the values represent the average number of organisms in the
left kidneys of the nine mice in each set.

For test [2], the system named is T cell differentiation and function. Briefly: in vitro and in vivo assay systems designed to measure T cell differentiation and function.
For test [3] the test system is unchanged. Conditions: several in vitro and in vivo assay systems; cited from earlier work.

Ends that are not written are not given here.

In the case of “Ac-SDAAVDTSSEITTKDLKEKKEVVEEAENGREAPAN [Thymosin α11]”, the “Protection in comparison with control mice” value in test [1] is “provided protection”. The “C. albicans cell count” value in test [1] (dose 80 ng/mouse daily i.p.) is recorded as 4200; in test [1] (dose 160 ng/mouse daily i.p.), 510; in test [1] (dose 320 ng/mouse daily i.p.), 320; in test [1] (dose 640 ng/mouse daily i.p.), 1260. For the same substance, the “Most active (optimum) daily dose” value in test [1] is on record as 160-320 ng per mouse. The “Potency relative to fraction 5 in ability to induce resistance to infection with C. albicans” value in test [1] is listed as “about 30 times”. Besides, the “Biological activity relative to thymosin alpha1” value in test [2] was “same quantitative and qualitative biological activity”.
As to “Thymosin α1: first active peptide isolated and characterized from thymosin fraction 5 (Ac-SDAAVDTSSEITTKDLKEKKEVVEEAEN; ends and bridges not checked; UniProt P06454 2-29, looked up)”, the “Protection in comparison with control mice” value in test [1] is on record as “provided protection”. Also, the “C. albicans cell count” value in test [1] (dose 80 ng/mouse daily i.p.) is on record as 5870; in test [1] (dose 160 ng/mouse daily i.p.), 190; in test [1] (dose 320 ng/mouse daily i.p.), 780; in test [1] (dose 640 ng/mouse daily i.p.) it was 1410. For the same substance, in test [1], the “Most active (optimum) daily dose” value is reported as 160-320 ng per mouse. The “Potency relative to fraction 5 in ability to induce resistance to infection with C. albicans” value in test [1] was “about 30 times”. Besides, the “Activity relative to fraction 5” value in test [3] is listed as “one or more orders of magnitude more active than fraction 5”.
